Assay results from patent US11414414B2, “Pyrroloquinoline quinone glycine betaine salt” (SHANGHAI XUANCHUANG BIOLOGICAL TECHNOLOGY CO., LTD., priority 2016, dated 2022).
Each block holds one compound with its values, some of them ahead of it.

Assays:
[1] = tested on: CC14-induced acute liver injury model mice; experiment: CC14-induced acute liver injury model: ALT, AST in serum, SOD, GSH-Px, MDA in liver homogenate; format: in vivo, Kunming mice; conditions: for GSH-Px / MDA / SOD: liver homogenate, Mean ± SD; for GSH-Px / MDA / SOD / ALT / AST: 3 mg/kg by weight of PQQ, gavage once a day for 7 days; for ALT / AST: serum, 24 h after CC14, Mean ± SD
Protocol: Forty-eight male Kunming mice weighing 18-22 g were randomly divided into 4 groups: blank control group, CC14 model group, PQQ disodium salt group and PQQ betaine salt group, respectively, with 12 mice in each group.
On the 7th day after gavage for 1 h, the mice in CC14 model group, PQQ disodium salt group and PQQ betaine salt group were injected intraperitoneally with 0.25% CC14 peanut oil (10 mL/kg) once, resulting in acute liver injury models; while mice in the blank control group were injected intraperitoneally with peanut oil (10 mL/kg) once. Animals were sacrificed after orbital blood collection for 24 h. 0.5-1 mL blood was collected from the mouse orbit, serum was separated by static centrifugation, and ALT and AST levels in serum were measured by biochemical kits. Animals were sacrificed and livers were removed for preparing liver homogenate. Superoxide dismutase (SOD), glutathione peroxidase (GSH-Px) activity and malondialdehyde (MDA) content in liver homogenates were determined by biochemical kits.

[2] = tested on: scopolamine-induced memory disordered model mice; experiment: Morris water maze spatial probe test in scopolamine-induced memory disordered mice; format: in vivo, Kunming mice; conditions: for Latent period of crossing the original platform / Number of time of crossing platform: fifth day, Mean ± SD
Protocol: (§1) Fifty Kunming mice, weighing 18-22 g, were randomly divided into five groups: blank control group, model group, low-dose PQQ betaine salt group (1.5 mg/kg), high-dose PQQ betaine salt group (3 mg/kg) and positive control group (donepezil, 3 mg/kg), respectively, 10 mice in each group. Wherein the PQQ betaine salt used is a crystalline Form A of pyrroloquinoline quinone betaine salt prepared according to the method of example 1.
(§2) The blank control group and the model group were administered with distilled water by gavage, the low-dose PQQ betaine salt group, the high-dose group and positive control group were administered with drugs by gavage respectively, once a day. Learning and memory training was carried out on the fifth day of administration and for 5 days in total; the model group, the low-dose PQQ betaine salt group, the high-dose group and the positive control group were intraperitoneally injected with 2 mg/kg of scopolamine 20 minutes earlier before training to obtain memory disordered models, while the blank control group was injected with a corresponding volume of saline. Morris water maze experiment were carried out for 5 days in total, wherein, a place navigation test was carried out in the first 4 days in order to observe and record the time required for the experimental animals to seek and climb onto the platform, in order to test the learning ability of mice. On the fifth day, a spatial probe test was carried out, during the test, the platform was removed, the time (the latent period) when crossing the original platform position for the first time was recorded as well as the number of time of traversing the original platform position for the animal, in order to test the spatial memory capacity of the animal. The latent period and the number of time of traversing platforms were used as evaluation indexes to detect the improvement of learning and memory in dementia model mice.

[3] = Standing at room temperature (hygroscopicity observation); format: physicochemical; conditions: room temperature (25° C., about 50% humidity), a period of time
[4] = Dynamic moisture sorption (DVS) hygroscopicity; format: physicochemical; conditions: warehouse environment (humidity of 45%)
[5] = Illumination stability of the crystalline form (XRPD); conditions: light intensity of 4500 lux, 5 and 10 days
Text: An appropriate amount of sample of the crystalline Form A of pyrroloquinoline quinone betaine salt was subjected to a light intensity of 4500 lux, and after 5 and 10 days the sample was removed for XPRD testing (as shown in FIGS. 6 and 7) to examine the crystalline stability of the sample under illumination.

[6] = High temperature stability of the crystalline form (XRPD); conditions: oven at 60° C., 5 days and 10 days
Protocol: An appropriate amount of sample of the crystalline Form A of Pyrroloquinoline Quinone Betaine Salt was placed in an oven at 60° C., and after 5 days and 10 days the sample was removed for XPRD testing (as shown in FIGS. 2 and 3) to examine the crystalline stability of the sample against temperature.

[7] = Solubility of saturated aqueous solution by UV absorbance at 450 nm
[8] = High humidity stability of the crystalline form (XRPD); conditions: humidity of 92.5%, 5 days and 10 days
Text: The appropriate amount of sample of the crystalline Form A of pyrroloquinoline quinone betaine salt is subjected to the humidity of 92.5%, and after 5 days and 10 days the samples were removed for XPRD testing (as shown in FIGS. 4 and 5) to examine the crystalline stability of the sample against humidity.

[9] = tested on: scopolamine-induced memory disordered model mice; experiment: Morris water maze place navigation test in scopolamine-induced memory disordered mice; format: in vivo, Kunming mice; conditions: for Latent period, the first day / Latent period, the fourth day / Latent period, the second day / Latent period, the third day: time to climb onto the platform, Mean ± SD
Protocol: as §1, §2

[10] = P<0.05 compared to the model group

Compound: O=C([O-])c1cc(C(=O)[O-])c2c(n1)C(=O)C(=O)c1cc(C(=O)O)[nH]c1-2.[Na+].[Na+] [Disodium salt of PQQ, reference compound]
GSH-Px [1]: 93.4 ± 10.1^ΔΔ kU/g pro | MDA [1]: 2.71 ± 0.37^Δ nmol/L | SOD [1]: 29.5 ± 4.9^Δ kU/g pro | ALT [1]: 126.5 ± 27.0^ΔΔ IU/L | AST [1]: 115.4 ± 22.7^Δ IU/L

Compound: COc1cc2c(cc1OC)C(=O)C(CC1CCN(Cc3ccccc3)CC1)C2 (centres unmarked) [Donepezil, donepezil, reference compound]
Latent period of crossing the original platform ([2]; 3 mg/kg): 16.41 ± 7.60^ΔΔ s | Number of time of crossing platform ([2]; 3 mg/kg): 2.90 ± 0.57^ΔΔ

appearance after standing (hygroscopicity) [3]: became a sticky solid
Compound: C[N+](C)(C)CCO.C[N+](C)(C)CCO.C[N+](C)(C)CCO.O=C(O)c1cc(C(=O)O)c2c(n1)C(=O)C(=O)c1cc(C(=O)O)[nH]c1-2 [tricholine salt of PQQ]

Compound: pyrroloquinoline quinone betaine salt [PQQ betaine salt]
moisture sorption [4]: 1.1% | Latent period of crossing the original platform ([2]; 1.5 mg/kg): 25.48 ± 12.19^ΔΔ s | Number of time of crossing platform ([2]; 1.5 mg/kg): 2.20 ± 0.42^Δ | Latent period of crossing the original platform ([2]; 3 mg/kg): 20.98 ± 9.44^ΔΔ s | Number of time of crossing platform ([2]; 3 mg/kg): 2.10 ± 0.57^Δ | latent period in spatial search compared to the model group [2, 10]: reduced | number of time of crossing platform compared to the model group [2, 10]: increased | crystalline stability under illumination [5]: stable | crystalline stability against temperature [6]: stable | Relative ratio (solubility) [7]: 1.50 | Solubility ([7]; saturated aqueous solution at 30° C., solubility of pyrroloquinoline quinone): 14.50 mM | crystalline stability against humidity [8]: stable | Latent period, the first day ([9]; 1.5 mg/kg gavage once a day): 74.30 ± 17.80 s | Latent period, the fourth day ([9]; 1.5 mg/kg gavage once a day): 50.80 ± 15.95 s | Latent period, the second day ([9]; 1.5 mg/kg gavage once a day): 62.90 ± 14.07 s | Latent period, the third day ([9]; 1.5 mg/kg gavage once a day): 51.90 ± 16.43 s | Latent period, the first day ([9]; 3 mg/kg gavage once a day): 74.70 ± 16.94 s | Latent period, the fourth day ([9]; 3 mg/kg gavage once a day): 29.50 ± 12.29^ΔΔ s | Latent period, the second day ([9]; 3 mg/kg gavage once a day): 62.30 ± 13.84 s | Latent period, the third day ([9]; 3 mg/kg gavage once a day): 38.20 ± 14.01^Δ s | latent period in place navigation compared with the model group ([9]; P<0.05 or P<0.01 compared with the model group): significantly shortened | effect on CC14-induced acute liver injury in mice ([1]; 3 mg/kg, gavage, 7 days, overall conclusion): significantly improved | GSH-Px [1]: 93.5 ± 9.0^ΔΔ kU/g pro | MDA [1]: 2.61 ± 0.37^ΔΔ nmol/L | SOD [1]: 31.1 ± 4.5^ΔΔ kU/g pro | ALT [1]: 110.1 ± 26.0^ΔΔ IU/L | AST [1]: 110.0 ± 20.4^ΔΔ IU/L
